Source: article PMC9995496, “A screen for MeCP2-TBL1 interaction inhibitors using a luminescence-based assay” (Scientific Reports, 2023)
Structures can show the parent of a compound that is named as a salt. Where two headings read alike, the source gives them in different places.

System: PRKACA-PRKAR2A interaction (SmBiT-PRKACA / LgBiT-PRKAR2A), protein kinase A
Design: NanoLuc complementation counter-screen in cell extract, PRKACA with PRKAR2A, loss of luminescence, detects NanoLuc interference
Conditions: 0.5 h, 20 µM, inhibitor
[1] = counter-screen for NanoLuc interference

Compound | Inh (PKA) [1] | other results
COc1ccc(C[C@H](N)C(=O)N[C@H]2[C@@H](O)[C@H](n3cnc4c(N(C)C)ncnc43)O[C@@H]2CO)cc1 [UM0142790:01, Puromycin dihydrochloride] | -1.723% | 
C=CCNc1ncnc2ccc(Br)cc12 [UM0142792:01, SMER 28] | 2.149% | 
CC(C)(C)c1ccc(S(=O)(=O)NCc2ccc(C(=O)Nc3cccnc3)cc2)cc1 [UM0142793:01, STF 31] | 3.916% | 
O=C(O)[C@@]1(CCCCCCOc2ccc(Cl)cc2)CO1 [UM0142794:01, (R)-(+)-Etomoxir sodium salt] | 1.565% | 
CC(C(=O)O)C(=O)O [UM0142795:01, Methylmalonate] |  | Inh (PKA): -2.942
COc1nccnc1NS(=O)(=O)c1ccc(NC(=O)/C=C/c2ccc([N+](=O)[O-])s2)cc1 [UM0142796:01, Necrosulfonamide] | 27.6% | 
COc1cc2c(NC3CCN(C(C)C)CC3)nc(N3CCC(F)(F)CC3)nc2cc1OCCCN1CCCC1 [UM0142799:01, UNC 0642] | 0.7014% | 
COc1ccc(N(C)c2nc(C)nc3ccccc23)cc1 [UM0142800:01, MPC 6827 hydrochloride] | 22.54% | 
CCc1c(-c2ccccc2)c(-c2ccccc2)nn1-c1ccccc1-c1cccc(OCC(=O)O)c1 [UM0142801:01, BMS 309403] | 85.65% | 
Nc1nccc(Oc2ccc3c(C(=O)Nc4cccc(C(F)(F)F)c4)cccc3c2)n1 [UM0142802:01, BAW2881 (NVP-BAW2881)] | 7.673% | 
C[C@@H]1CC(=O)Nc2cccc(-c3ccc4c(c3)c(-c3cnn(C)c3)nn4C)c2N1 [UM0142803:01, CPI-637] | 3.742% | 
Cc1ccc(C(=O)OCc2ccc([C@@H](CN)C(=O)Nc3ccc4cnccc4c3)cc2)c(C)c1 [UM0142804:01, Netarsudil (AR-13324)] | 32.51% | 
Oc1cc(CNC(=S)/C=C/c2cc(O)c(O)c(Br)c2)cc(O)c1O [UM0142805:01, NT157] | 30.97% | 
COc1ccc(Cn2c3ncnc4c(ncn4Cc4ccc(OC)cc4)c-3nc2=O)cc1 [UM0142806:01, RK-33] | 7.723% | 
CN(C)CCCOc1ccc(-c2ccc3ncc4c(c3c2)n(C2CCOCC2)c(=O)n4C)cn1 [UM0142808:01, AZD0156] | -0.519% | 
O=C(O)C(O)C(O)C(=O)O (stereo not shown) [UM0142810:01, Sodium tartrate] | 0.7692% | 
c1c[nH]cn1 [UM0142811:01, Imidazole] | 0.004759% | 
Nc1ccc(C(=O)O)cc1 [UM0142813:01, 4-Aminobenzoic acid] | -1.147% | 
O[C@H]1[C@H](O)[C@@H](O)[C@H](O)[C@@H](O)[C@H]1O [UM0142814:01, myo-Inositol] | -0.9273% | 
CCCCCCCCCCCCCC(=S)NCCCC[C@H](NC(=O)OCc1ccccc1)C(=O)Nc1ccccc1 [UM0142815:01, Thiomyristoyl] | -1.991% | 

Compound | Inh (PKA) [1] | other results
CC(C)(O)c1coc(S(=O)(=O)NC(=O)Nc2c3c(cc4c2CCC4)CCC3)c1 [UM0142816:01, MCC950 sodium] | -1.906% | 
Cc1c(CN2CCN(S(C)(=O)=O)CC2)sc2c(N3CCOCC3)nc(-c3cnc(N)nc3)nc12 [UM0142817:01, GNE-477] | 0.346% | 
COc1ccc(N(C(=O)Oc2c(C)cccc2C)c2ccnc(Nc3ccc(N4CCN(C)CC4)cc3)n2)c(OC)c1 [UM0142819:01, WH-4-023] |  | Inh (PKA): 37.82%
CCCCNc1ncc2c(-c3ccc(CN4CCN(C)CC4)cc3)cn([C@H]3CC[C@H](O)CC3)c2n1 [UM0142820:01, UNC2025] | 23.55% | 
CC(C)OC(=O)[C@H](C)N[P@](=O)(CO[C@H](C)Cn1cnc2c(N)ncnc21)Oc1ccccc1 [UM0142821:01, GS-7340] |  | Inh (PKA): 0.4788
CCS(=O)(=O)N1CCN(c2ccc(Nc3ncc(C(N)=O)c(NC4CC4)n3)cc2)CC1 [UM0142822:01, Cerdulatinib (PRT062070)] | 16.29% | 
C=C(Cc1ccccc1Cl)C(=O)OCC [UM0142823:01, INF39] | 8.84% | 
CC1=C(CSC(=S)N2CCCCC2)C(=O)c2ccccc2C1=O [UM0142824:01, PKM2 inhibitor(compound 3k)] | 18.26% | 
N#Cc1cnc(Nc2cc(NC[C@H]3CNCCO3)c(C(F)(F)F)cn2)cn1 [UM0142825:01, CCT245737] | 4.036% | 
NS(=O)(=O)c1nn2cc(-c3ccccc3)nc2s1 [UM0142826:01, AEG 3482] | 8.076% | 
O=C(c1ccc(Cl)cc1)N(Cc1ccccc1)C1CCCCC1 [UM0142831:01, FPS-ZM1] | 22.08% | 
O=C(O)C1=C(CSc2nnnn2CS(=O)(=O)O)CS[C@@H]2[C@H](NC(=O)[C@H](O)c3ccccc3)C(=O)N12 [UM0142832:01, Cefonicid (sodium salt)] | 2.197% | 
Cc1cc(C)nc(NC(=S)N2CCN(Cc3ccc(C(F)(F)F)cc3)CC2)c1 [UM0142833:01, NCT-503] | 4.726% | 
N[C@@H](CC(=O)N1CCn2c(nnc2C(F)(F)F)C1)Cc1cc(F)c(F)cc1F [UM0142834:01, Sitagliptin (phosphate)] |  | Inh (PKA) (counter-screen for NanoLuc interference, Inh (PKA)): -0.1445%
O=C(CCCCCCC(=O)Nc1ccc(I)cc1)NO [UM0142835:01, 4-iodo-SAHA] | 5.197% | 
CCCCCCCCCc1ccc(B(O)O)cc1 [UM0142836:01, 4-(n-nonyl) Benzeneboronic Acid] | -0.3283% | 
Cc1snnc1-c1ccccc1 [UM0142838:01, 4-phenyl-5-methyl-1,2,3-Thiadiazole] | 0.1553% | 
CC(C)(C)C(O)/C(=C\c1ccc(Cl)cc1)n1cncn1 (stereo not shown) [UM0142839:01, Uniconazole] | 40.56% | 
CC(=O)O[C@H]1C[C@@]2(C)[C@@H](C[C@@H](O)[C@H]3[C@@]4(C)CC[C@@H](O)[C@@H](C)[C@@H]4CC[C@@]32C)/C1=C(\CCC=C(C)C)C(=O)O [UM0142840:01, Fusidic Acid (sodium salt)] | 1.888% | 
COc1cc(/C=C/CO)cc(OC)c1O[C@@H]1O[C@H](CO)[C@@H](O)[C@H](O)[C@H]1O [UM0142842:01, Syringin] | -0.4642% | 

Compound | Inh (PKA) [1] | other results
C[C@H]1[C@H](C)CC[C@]2(C(=O)O)CC[C@]3(C)C(=CC[C@@H]4[C@@]5(C)C[C@@H](O)[C@H](O)[C@@](C)(CO)[C@@H]5CC[C@]43C)[C@H]12 [UM0142843:01, Asiatic acid] | 9.304% | 
C[C@H]1[C@H](C)CC[C@]2(C(=O)O[C@@H]3O[C@H](CO[C@@H]4O[C@H](CO)[C@@H](O[C@@H]5O[C@H](C)[C@H](O)[C@@H](O)[C@H]5O)[C@H](O)[C@H]4O)[C@@H](O)[C@H](O)[C@H]3O)CC[C@]3(C)C(=CC[C@@H]4[C@@]5(C)C[C@@H](O)[C@H](O)[C@@](C)(CO)[C@@H]5CC[C@]43C)[C@H]12 [UM0142844:01, Asiaticoside] | -0.7873% | 
O=C1C[C@@H](c2ccc(O)cc2)Oc2cc(O)cc(O)c21 [UM0142845:01, Naringenin] | 6.247% | 
C=C1CC[C@@H]2[C@](C)(CO)[C@H](O)CC[C@@]2(C)[C@H]1C/C=C1\C=COC1=O [UM0142846:01, Dehydroandrographolide] | 12.37% | 
CC(C)=CCCC(C)(O)C1CCC2(C)C1C(O)CC1C3(C)CCC(O)C(C)(C)C3CCC12C (stereo not shown) [UM0142847:01, Protopanaxdiol] | 2.916% | 
OC[C@H]1NC[C@H](O)[C@@H](O)[C@@H]1O [UM0142849:01, 1-Deoxynojirimycin] | 1.08% | 
C[C@H](CCC(=O)O)[C@H]1CC[C@H]2[C@@H]3CC[C@@H]4C[C@H](O)CC[C@]4(C)[C@H]3C[C@H](O)[C@]12C [UM0142850:01, Deoxycholic acid] | 5.283% | 
O=C(O)c1cc(O)c2c(c1)[C@@H]([C@H]1c3cc(C(=O)O)cc(O)c3C(=O)c3c(O[C@@H]4O[C@H](CO)[C@@H](O)[C@H](O)[C@H]4O)cccc31)c1cccc(O[C@@H]3O[C@H](CO)[C@@H](O)[C@H](O)[C@H]3O)c1C2=O [UM0142851:01, Sennoside B] | 36.22% | 
O=C(O)c1cc(O)c2c(c1)[C@H]([C@H]1c3cc(C(=O)O)cc(O)c3C(=O)c3c(O[C@@H]4O[C@H](CO)[C@@H](O)[C@H](O)[C@H]4O)cccc31)c1cccc(O[C@@H]3O[C@H](CO)[C@@H](O)[C@H](O)[C@H]3O)c1C2=O [UM0142852:01, Sennoside A] | 33.8% | 
C[C@H]1[C@@H](O)O[C@@H]2O[C@@]3(C)CC[C@H]4[C@H](C)CC[C@@H]1[C@@]24OO3 [UM0142853:01, Dihydroartemisinin] | 0.1421% | 
CC1(C)[C@@H](O[C@H]2O[C@H](C(=O)O)[C@@H](O)[C@H](O)[C@H]2O[C@@H]2O[C@H](C(=O)O)[C@@H](O)[C@H](O)[C@H]2O)CC[C@]2(C)[C@H]3C(=O)C=C4[C@@H]5C[C@@](C)(C(=O)O)CC[C@]5(C)CC[C@@]4(C)[C@]3(C)CC[C@@H]12 [UM0142854:01, Glycyrrhizic acid] | 4.863% | 
O=C1c2c(O)cc(O)cc2O[C@H](c2ccc(O)c(O)c2)[C@H]1O [UM0142856:01, Taxifolin] | 0.9672% | 
Cc1coc2c1C(=O)C(=O)c1c-2ccc2c(C)cccc12 [UM0142857:01, Tanshinone I] | 27.32% | 
O=C1c2c(O)cc(O)cc2O[C@H](c2cc(O)c(O)c(O)c2)[C@H]1O [UM0142858:01, Dihydromyricetin] | 4.571% | 
C=C1CC[C@@H]2[C@](C)(CO)[C@H](O)CC[C@@]2(C)[C@@H]1C/C=C1/C(=O)OC[C@H]1O [UM0142859:01, Andrographolide] | 1.527% | 
COc1ccc([C@@H]2CC(=O)c3c(O)cc(O)cc3O2)cc1O [UM0142860:01, Hesperitin] | 3.061% | 
CCc1c2c(nc3ccc(O)cc13)-c1cc3c(c(=O)n1C2)COC(=O)[C@]3(O)CC [UM0142861:01, 7-Ethyl-10-hydroxycamptothecin] | 8.347% | 
COC1=C[C@@H]2[C@@H]3Cc4ccc(OC)c(O)c4[C@]2(CCN3C)CC1=O [UM0142862:01, Sinomenine Hydrochloride] |  | Inh (PKA): 0.8653%
